From patent publication US10987351B2, “RORgamma modulators and uses thereof” (Genfit, priority 2017, dated 2021)

Legend:
human RORγt [1] = biological target: T1, human RORγt (Homo sapiens, UniProt P51449); test: RORE Luciferase/RORγt transactivation assay; assay type: cell-based; set-up: the full-length cDNA of human RORγt; V5-His (encoded by the vector); expressed in transfected cells; host or cells: COS-7 (monkey kidney); conditions: COS-7 cells transfected with human IL-17 promoter luciferase reporter and RORγt plasmid, 20 h; read-out: IC50, RORγt activity inhibition (luciferase reporter)
T1 sequence (P51449 1-497 isoform P51449-2): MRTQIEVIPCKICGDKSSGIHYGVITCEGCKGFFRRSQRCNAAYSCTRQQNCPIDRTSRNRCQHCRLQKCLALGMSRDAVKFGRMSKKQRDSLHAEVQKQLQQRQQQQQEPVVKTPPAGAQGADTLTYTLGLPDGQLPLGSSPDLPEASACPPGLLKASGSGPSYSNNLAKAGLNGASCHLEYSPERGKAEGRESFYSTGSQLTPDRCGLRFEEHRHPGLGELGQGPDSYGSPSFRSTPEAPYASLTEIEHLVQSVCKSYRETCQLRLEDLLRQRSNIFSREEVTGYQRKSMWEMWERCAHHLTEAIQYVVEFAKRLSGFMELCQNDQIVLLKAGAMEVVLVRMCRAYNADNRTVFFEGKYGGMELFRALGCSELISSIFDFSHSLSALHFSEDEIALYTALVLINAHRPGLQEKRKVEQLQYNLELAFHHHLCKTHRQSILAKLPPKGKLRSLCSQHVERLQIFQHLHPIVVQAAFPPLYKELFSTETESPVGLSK
Experimental: It is well known that RORγ binds to a conserved non-coding sequence (CNS) enhancer element in the IL-17 promoter.
Culture medium was changed every 2 days.
The 4.3 Kb human IL-17 promoter containing the RORγ-specific CNS enhancer element was PCR amplified from human genomic DNA and cloned into a pGL3-TKLuc2Cp reporter plasmid.
The luciferase reporter plasmid and the RORγt overexpression plasmid were transfected into COS-7 cell line using 4 μLJetPEI™/μg of DNA. Briefly, 150 ng of DNA (ration 1/2 between RORE-Tk Luc2Cp and cDNA RORγt or the empty vector for the negative control) was served to transfect adherent COS-7 cells in a […] culture flask, in complete medium (see cos-7 cell line culture).
Cells were then detached (using trypsin) and washed by centrifugation at 300 g for 10 minutes. Cell pellet was resuspended in serum free/phenol red free DMEM and seeded in 384 well plates at a density of 10000 cells/well and then incubated for 4 h at 37° C.
Compounds were dissolved in 100% DMSO to obtain 10 mM stock solutions. For each compound, test concentrations were diluted in serum free/phenol red free DMEM using the Genesis Freedom 200™ (TECAN) and added to the cells to obtain a 0.3% DMSO final concentration (in a final volume of 40 μL per well).
The luciferase activity was then measured with 40 μL/well steady-Glo Luciferase assay system (Promega, Madison, Wis.) and after incubation at room temperature for 30 minutes. The luminescence was estimated using the Ultra384 reader (TECAN). Data were collected and analyzed using GraphPad Prism software (GraphPad Software V5.02, San Diego Calif. USA). IC50 in μM and Emax in % were reported for each compound.

human RORγt [2] = biological target: T1, human RORγt; test: IL-17 secretion from EL4 murine lymphoma cells overexpressing human RORγt; assay type: cell-based; conditions: human RORγt-transfected EL4 cells, PMA and ionomycin stimulation; read-out: IC50, inhibition of IL-17 secretion
Experimental: Murine EL-4 lymphoma cell line overexpressing human RORγt was used in this functional assay to assess compound ability to inhibit IL-17 cytokine secretion.
EL-4 cells are maintained in a standard culture medium RPMI supplemented with 10% fetal calf serum, 1% sodium pyruvate, 1% essential amino acids and 1% antibiotics at 37° C. in a humidified atmosphere of 5% CO02 and 95% air. Culture medium was changed every 2 days. EL4 cells were transfected with a plasmid encoding hRORγt (sequence identical to published sequence NM 001001523). […] Briefly, 1 μg of DNA/1 million cells was served to transfect EL-4 cells. Cell/DNA suspension was transferred into certified cuvette and the electroporation of RORγt plasmid was carried out using appropriate Nucleofector® program.
Cells were seeded in 96 well plates at a density of 150000 cells/I well then treated with compounds of this invention at indicated concentrations and incubated for 24 hours at 37° C. in a humidified atmosphere of 5% CO2 and 95% air. EL-4 cells were pretreated with test compounds (RORγ modulators) and stimulated with PMA (10 ng/mL) and ionomycin (1 μM final concentration) in the presence of test compound concentrations for additional 24 h at 37° C. in a humidified atmosphere of 5% CO2 and 95% air. Subsequently, supernatants were collected (after centrifugation at 300 g for 10 minutes) to determine the concentrations of IL-17 by HTRF (CisBio, France) or ELISA (R&D Systems Europe) according to the manufacturer's protocols.

[3] = biological target: T2, RORγt ligand-binding domain (RORγt-LBD) (Homo sapiens, UniProt P51449); test: Time-resolved FRET (TR-FRET) RORγt coactivator assay; assay type: biochemical; conditions: GST-RORγ-LBD, biotinylated RIP140 peptide, 2 hours; read-out: IC50, coactivator-RORγt binding inhibition (TR-FRET)
T2 construct: 20 nM recombinantly expressed RORγ-LBD fused to GST
T2 sequence (P51449 269-508 limits assumed): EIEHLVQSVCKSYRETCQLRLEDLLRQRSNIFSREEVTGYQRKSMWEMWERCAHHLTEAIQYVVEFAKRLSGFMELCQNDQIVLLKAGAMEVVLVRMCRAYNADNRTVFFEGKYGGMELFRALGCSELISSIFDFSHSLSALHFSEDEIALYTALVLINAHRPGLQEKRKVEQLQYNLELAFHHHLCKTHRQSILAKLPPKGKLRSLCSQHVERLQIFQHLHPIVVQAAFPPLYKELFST
Description: Time-resolved FRET (TR-FRET) RORγt coactivator assay was used to identify RORγ modulator compounds with ligand-dependent coactivator displacement. The assay uses a d2-labeled anti-GST antibody, synthetic N-terminally biotinylated peptide which is derived from nuclear receptor coactivator protein RIP140, and a RORγt ligand-binding domain (RORγt-LBD) that is tagged with glutathione-S-transferase (GST). The influence of compounds on the RORγ-peptide interaction relies on the binding dependent energy transfer from a donor to an acceptor fluorophor attached to the binding partner of interest. […] For reduction of background from compound fluorescence, TR-FRET method makes use of generic fluorophore labels and time resolved detection.
The assays were done in a final volume of 20 μl in a 384 well plate in a CHAPS buffer (2 mM CHAPS; 1 mM DTT, 2 mM EDTA; 0.1% BSA), containing 20 nM recombinantly expressed RORγ-LBD fused to GST, 30 nM N-terminally biotinylated peptide, 1 nM streptavidin-terbium conjugate and 20 nM d2 labeled-anti-GST. Test compounds were diluted using 10 mM stock solution. The range of the final compound concentrations used in this test was from 0.3 nM to 30 μM (logarithmic scale). DMSO content of the samples was kept at 1%. The assay was equilibrated for 2 hours in the dark at room temperature in 384 well plates (Falcon). The signal was detected by an Ultra384 reader (TECAN). […] Compounds that promote coactivator displacement induce a concentration-dependent decrease in time-resolved fluorescent signal. Data were collected and analyzed using GraphPad Prism software (GraphPad Software V5.02, San Diego Calif. USA). IC50 in μM and Emax in % were reported for each compound.

[4] = test system: patients with moderate to severe psoriasis; conditions: cited from earlier work

Row | SMILES | IC50 (human RORγt [1]) [nM] | IC50 (human RORγt [2]) [nM] | IC50 [3] [nM] | reduction in the Psoriasis Area Severity Index (PASI) score relative to placebo ([4]; 350 mg dose group) [%] | placebo-adjusted PASI score reduction ([4]; 700 mg dose group) [%]
1 | CC(=O)N1CCN(c2ccc(C)c(CC(=O)NC(c3ccccc3)c3ccc(C)cc3N3CCCC3)c2)CC1 (centres unmarked) [Cpd.3, 2-[5-(4-acetylpiperazin-1-yl)-2-methylphenyl]-N-{[4-methyl-2-(pyrrolidin-1-yl)phenyl](phenyl)methyl}acetamide] | < 100 | 100 to 1000 | < 100 |  | 
2 | CC(=O)N1CCN(c2ccc(C)c(CC(=O)NC(c3ccc(C)o3)c3ccc(C)cc3N3CCCCC3)c2)CC1 (centres unmarked) [Cpd.10, 2-[5-(4-acetylpiperazin-1-yl)-2-methylphenyl]-N-{[4-methyl-2-(piperidin-1-yl)phenyl](5-methylfuran-2-yl)methyl}acetamide] | < 100 | < 100 | < 100 |  | 
3 | COc1ccc(C(NC(=O)Cc2cc(N3CCN(C(C)=O)CC3)ccc2C)c2ccc(C)o2)c(N2CCCCCC2)c1 (centres unmarked) [Cpd.11, 2-[5-(4-acetylpiperazin-1-yl)-2-methylphenyl]-N-{[2-(azepan-1-yl)-4-methoxyphenyl](5-methylfuran-2-yl)methyl}acetamide] | 100 to 1000 | 100 to 1000 | < 100 |  | 
4 | CC(=O)N1CCN(c2ccc(F)c(CC(=O)NC(c3ccc(C)o3)c3ccc(C)cc3C)c2)CC1 (centres unmarked) [Cpd.12, 2-[5-(4-acetylpiperazin-1-yl)-2-fluorophenyl]-N-[(2,4-dimethylphenyl)(5-methylfuran-2-yl)methyl]acetamide] | 100 to 1000 | 1000 to 10000 | < 100 |  | 
5 | COc1ccc(C(NC(=O)Cc2cc(N3CCN(C(C)=O)CC3)ccc2F)c2ccc(C)o2)c(N2CCCCCC2)c1 (centres unmarked) [Cpd.14, 2-[5-(4-acetylpiperazin-1-yl)-2-fluorophenyl]-N-{[2-(azepan-1-yl)-4-methoxyphenyl](5-methylfuran-2-yl)methyl}acetamide] | 100 to 1000 | 100 to 1000 | < 100 |  | 
6 | Cc1ccc(C(NC(=O)Cc2cc(N3CCN(S(C)(=O)=O)CC3)ccc2F)c2ccc(C)o2)c(N2CCCCC2)c1 (centres unmarked) [Cpd.16, 2-[2-fluoro-5-(4-methanesulfonylpiperazin-1-yl)phenyl]-N-{[4-methyl-2-(piperidin-1-yl)phenyl](5-methylfuran-2-yl)methyl}acetamide] | 100 to 1000 | 100 to 1000 | < 100 |  | 
7 | COc1ccc(C(NC(=O)Cc2cc(N3CCN(C(C)=O)CC3)ccc2F)c2ccccc2)c(N2CCCCCC2)c1 (centres unmarked) [Cpd.17, 2-[5-(4-acetylpiperazin-1-yl)-2-fluorophenyl]-N-{[2-(azepan-1-yl)-4-methoxyphenyl](phenyl)methyl}acetamide] | 100 to 1000 | 100 to 1000 | < 100 |  | 
8 | Cc1ccc(C(NC(=O)Cc2ccc(N3CCC(S(C)(=O)=O)CC3)cc2)c2ccc(C)o2)c(N2CCCCC2)c1 (centres unmarked) [Cpd.18, 2-[4-(4-methanesulfonylpiperidin-1-yl)phenyl]-N-{[4-methyl-2-(piperidin-1-yl)phenyl](5-methylfuran-2-yl)methyl}acetamide] | < 100 | 100 to 1000 | < 100 |  | 
9 | CC(=O)C1CCN(c2ccc(CC(=O)NC(c3ccc(C)o3)c3ccc(C)cc3N3CCCCC3)cc2)CC1 (centres unmarked) [Cpd.19, 2-[4-(4-acetylpiperidin-1-yl)phenyl]-N-{[4-methyl-2-(piperidin-1-yl)phenyl](5-methylfuran-2-yl)methyl}acetamide] | < 100 | 100 to 1000 | < 100 |  | 
10 | CC(=O)N1CCN(c2cccc(CC(=O)NC(c3ccc(C)o3)c3ccc(C)cc3N3CCCCC3)c2)CC1 (centres unmarked) [Cpd.20, 2-[3-(4-acetylpiperazin-1-yl)phenyl]-N-{[4-methyl-2-(piperidin-1-yl)phenyl](5-methylfuran-2-yl)methyl}acetamide] | < 100 | < 100 | < 100 |  | 
11 | CCS(=O)(=O)c1ccc(CNC(=O)c2cnc3c(c2)CN(C[C@H]2CC[C@H](C(F)(F)F)CC2)[C@H]3C(C)C)nc1 [VTP-43742] |  |  |  | 24 | 30
